Where “and” joins values, the source holds several entries; their conditions need not be identical. Identical values can stand only once.
Assays:
[1] = test system: Heart; test: Positive inotropic activity in Sprague-Dawley rat heart assessed as peak decrease rate of left ventricular pressure at 10 umol/L (reference value: - 756.58 +/- 265.23 to - 831 +/- 313.09 mmHg/s); format: functional, Heart left ventricle
[2] = test system: Heart; test: Positive inotropic activity in Sprague-Dawley rat heart assessed as heart rate at 10 umol/L (reference value: 218.67 +/- 20.62 to 260 +/- 21.81 bpm); format: functional
[3] = test system: Heart; test: Positive inotropic activity in Sprague-Dawley rat heart assessed as peak decrease rate of left ventricular pressure at 100 umol/L (reference value: - 756.58 +/- 265.23 to - 831 +/- 313.09 mmHg/s); format: functional, Heart left ventricle
[4] = Retention time of the compound by HPLC- MS/MS analysis; format: physicochemical
[5] = test system: Heart; test: Positive inotropic activity in Sprague-Dawley rat heart assessed as peak rise rate of left ventricular pressure at 1 umol/L (reference value: 1117.66 +/- 665.76 to 1242.03 +/- 495.72 mmHg/s); format: functional, Heart left ventricle
[6] = test system: Heart; test: Positive inotropic activity in Sprague-Dawley rat heart assessed as left ventricular diastolic pressure at 10 umol/L (reference value: -0.04 +/- 0.33 to -0.67 +/- 0.69 mmHg); format: functional, Heart left ventricle
[7] = test system: Heart; test: Positive inotropic activity in Sprague-Dawley rat heart assessed as heart rate at 100 umol/L (reference value: 218.67 +/- 20.62 to 260 +/- 21.81 bpm); format: functional
[8] = test system: Heart; test: Positive inotropic activity in Sprague-Dawley rat heart assessed as heart rate at 1 umol/L (reference value: 218.67 +/- 20.62 to 260 +/- 21.81 bpm); format: functional
[9] = test system: Heart; test: Positive inotropic activity in Sprague-Dawley rat heart assessed as left ventricular systolic pressure at 100 umol/L (reference value: 20.7 +/- 7.61 to 25.86 +/- 9.41 mmHg); format: functional, Heart left ventricle
[10] = test system: Heart; test: Toxicity in Sprague-Dawley rat heart assessed as arrhythmias; conditions: in vivo
[11] = test system: Heart; test: Positive inotropic activity in Sprague-Dawley rat heart assessed as left ventricular diastolic pressure at 100 umol/L (reference value: -0.04 +/- 0.33 to -0.67 +/- 0.69 mmHg); format: functional, Heart left ventricle
[12] = test system: Heart; test: Positive inotropic activity in Sprague-Dawley rat heart assessed as left ventricular systolic pressure at 10 umol/L (reference value: 20.7 +/- 7.61 to 25.86 +/- 9.41 mmHg); format: functional, Heart left ventricle
[13] = test system: Heart; test: Positive inotropic activity in Sprague-Dawley rat heart assessed as peak decrease rate of left ventricular pressure at 1 umol/L (reference value: - 756.58 +/- 265.23 to - 831 +/- 313.09 mmHg/s); format: functional, Heart left ventricle
[14] = test system: Heart; test: Positive inotropic activity in Sprague-Dawley rat heart assessed as peak rise rate of left ventricular pressure at 10 umol/L (reference value: 1117.66 +/- 665.76 to 1242.03 +/- 495.72 mmHg/s); format: functional, Heart left ventricle
[15] = test system: Heart; test: Positive inotropic activity in Sprague-Dawley rat heart assessed as peak rise of left ventricular pressure at 100 umol/L (reference value: 1117.66 +/- 665.76 to 1242.03 +/- 495.72 mmHg/s); format: functional, Heart left ventricle
[16] = test system: Heart; test: Positive inotropic activity in Sprague-Dawley rat heart assessed as left ventricular systolic pressure at 1 umol/L (reference value: 20.7 +/- 7.61 to 25.86 +/- 9.41 mmHg); format: functional, Heart left ventricle
[17] = test system: Heart; test: Positive inotropic activity in Sprague-Dawley rat heart assessed as left ventricular diastolic pressure at 1 umol/L (reference value: -0.04 +/- 0.33 to -0.67 +/- 0.69 mmHg); format: functional, Heart left ventricle
[18] = test system: Heart; test: Positive inotropic activity in Sprague-Dawley rat heart assessed as increase in peak decrease rate of left ventricular pressure at 100 uM relative to control; format: functional, Heart left ventricle; parameters: scale not given: the % may be the effect or the level left
[19] = test system: Heart; test: Positive inotropic activity in Sprague-Dawley rat heart assessed as increase in peak rise of left ventricular pressure at 10 uM relative to control; format: functional, Heart left ventricle
[20] = test system: Heart; test: Positive inotropic activity in Sprague-Dawley rat heart assessed as increase in peak rise of left ventricular pressure at 1 uM relative to control; format: functional, Heart left ventricle
[21] = test system: Heart; test: Positive inotropic activity in Sprague-Dawley rat heart assessed as increase in left ventricular systolic pressure at 1 uM relative to control; format: functional, Heart left ventricle
[22] = test system: Heart; test: Positive inotropic activity in Sprague-Dawley rat heart assessed as +dP/dtmax; format: functional, tissue-based
[23] = test system: Heart; test: Positive inotropic activity in Sprague-Dawley rat heart assessed as increase in left ventricular systolic pressure at 10 uM relative to control; format: functional, Heart left ventricle
[24] = test system: Heart; test: Positive inotropic activity in Sprague-Dawley rat heart assessed as increase in peak rise of left ventricular pressure at 100 uM relative to control; format: functional, Heart left ventricle
[25] = test system: Heart; test: Positive inotropic activity in Sprague-Dawley rat heart assessed as increase in left ventricular systolic pressure at 100 uM relative to control; format: functional, Heart left ventricle
[26] = test system: Heart; test: Positive inotropic activity in Sprague-Dawley rat heart assessed as -dP/dtmax; format: functional, tissue-based
[27] = test system: Heart; test: Positive inotropic activity in Sprague-Dawley rat heart assessed as increase in peak decrease rate of left ventricular pressure at 10 uM relative to control; format: functional, Heart left ventricle; parameters: scale not given: the % may be the effect or the level left
[28] = test system: Heart; test: Positive inotropic activity in Sprague-Dawley rat heart assessed as left ventricular systolic pressure; format: functional, tissue-based; conditions: Heart left ventricle
[29] = test system: Heart; test: Positive inotropic activity in Sprague-Dawley rat heart assessed as increase in peak decrease rate of left ventricular pressure at 1 uM relative to control; format: functional, Heart left ventricle; parameters: scale not given: the % may be the effect or the level left

Structure (SMILES)	Activity [1] [mmHg/s]	Activity [2] [bpm]	Activity [3] [mmHg/s]	Retention_time [4]	Activity [5] [mmHg/s]	Activity [6] [mmHg]	Activity [7] [bpm]	Activity [8] [bpm]	Activity [9] [mmHg]	Activity [10]	Activity [11] [mmHg]	Activity [12] [mmHg]	Activity [13] [mmHg/s]	Activity [14] [mmHg/s]	Activity [15] [mmHg/s]	Activity [16] [mmHg]	Activity [17] [mmHg]	also measured
CC(=O)NC(CSCc1nc(C)c(CO)nc1C)C(=O)O (stereo in doubt; 4)	-823.04	231.5	-872.56	5.705 min	1186.33	-0.7	232.39	228.5	22.4	Non-toxic	-0.59	21.69	-799.02	1191.76	1199.81	21.22	-0.15	
Cc1nc(C(=O)O)c(C)nc1CO	-892.92	252.83	-904.56	3.675 min and 3.637 min	1267.96	-0.19	246.61	259.5	28.51	Non-toxic	-0.38	27.85	-865.84	1286.48	1299.82	26.98	-0.24	
Cc1nc(CO[C@@H]2O[C@H](C(=O)O)[C@@H](O)[C@H](O)[C@H]2O)c(C)nc1CO (stereo in doubt; 2)	-804.27	221.22	-733.61	6.687 min	1127.74	-0.76	220.67	234.28	23.76	Non-toxic	-0.97	22.66	-790.99	1123.44	1127.22	22.35	-0.73	
Cc1nc(CO[C@@H]2O[C@H](C(=O)O)[C@@H](O)[C@H](O)[C@H]2O)c(C)nc1CO (stereo in doubt)				6.71 min														
Cc1nc(CO)c(C)nc1CO		245.44				-0.19	238.5	239.06		Non-toxic	-0.34						0	Activity [18]: 47.83%; Activity [19]: 14.75%; Activity [20]: 4.23%; Activity [21]: 17.65%; Activity [22]: Dose-dependent effect; Activity [23]: 32.96%; Activity [24]: 23.9%; Activity [25]: 59.4%; Activity [26]: Dose-dependent effect; Activity [27]: 24.95%; Activity [28]: Dose-dependent effect; Activity [29]: 10.38%
Cc1nc(CSCC(N)C(=O)O)c(C)nc1CO (stereo in doubt; 3)	-784.9	227.72	-822.39	3 min	1303.47	-0.09	230.67	231.39	27.42	Non-toxic	-0.24	25.68	-782.91	1296.62	1333.56	25.02	-0.11	
Cc1nc(CSCC(N)C(=O)O)c(C)nc1CO (stereo in doubt)				2.988 min														
CC(=O)NC(CSCc1nc(C)c(CO)nc1C)C(=O)O (stereo in doubt)				5.709 min														

— ChEMBL document CHEMBL3751747, “Synthesis and positive inotropic activity evaluation of liguzinediol metabolites” (Bioorg Med Chem Lett, 2016)
